Experimental data taken from patent US12509460B2 (Skyhawk Therapeutics, Inc., priority 2019, dated 2025).
pEC50: −log10 of the molar value.

Legend:
[1] = Quantitative splicing assay (HTT), qPCR; type: cell-based, human; settings: Homo sapiens, GM04724, 24 h, GM04724 lymphoblasts, qPCR, read-out: HTT Splicing: E49-50 EC50
Method in brief: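 TaqMan qPCR on cell-lysate cDNA quantifies cryptic-exon inclusion from HTT intron 49. Lymphoblasts plated at 50,000 cells/well had received compound for 24 h, 0.15 nM-2.5 uM range, 0.1% DMSO.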

[2] = tested on: mHTT protein in GM04724 (CAG 70/20) Huntington's disease patient lymphoblast cells; test: mHTT protein assay, 2B7-MW1 assay via Mesoscale Discovery (MSD); type: cell-based, human; settings: GM04724 Huntington's disease patient lymphoblasts
Method in brief: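 Signal from the 2B7-MW1 antibody pair on MSD, rising with polyQ length and smaller HTT fragments, measured mHTT after 48 h compound exposure (0.6 nM–10 μM) in GM04724 cells. A parallel replicate plate gave CellTiter Glo viability.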

[3] = tested on: SMN FL and SMN Δ7 in spinal muscular atrophy (SMA) patient fibroblasts (GM03813, Coriell); test: Quantitative splicing assay (SMN), qPCR; type: cell-based, human; settings: Homo sapiens, Fibroblast, 24 h, SMA patient fibroblasts GM03813, 24 h, qPCR; read-out: SMN2 Splicing FL EC50
Description: Spinal muscular atrophy (SMA) patient fibroblasts (GM03813, Coriell) are plated in 96-well plates at 50,000 cells/well. […] Treated cells are lysed and cDNA synthesized using the Fast Advanced Cells-to-Ct kit (Thermofisher A35378) according to the manufacturer's instructions. 2 μL of each cDNA are used in qPCR reactions. […] Reactions are run in a Quant Studio 6 qPCR instrument with default settings.

[4] = tested on: SMN protein in spinal muscular atrophy (SMA) patient fibroblasts (GM03813, Coriell); test: SMN protein assay, Mesoscale Discovery (MSD); type: cell-based, human; settings: SMA patient fibroblasts GM03813, 48 hours, MSD; for pEC50: read-out: SMN2 protein EC50
Method in brief: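 Absolute SMN levels were quantified by MSD against an SMN protein standard curve (1 μg/ml to 19.5 pg/ml) run on each plate. Samples were lysates of GM03813 patient fibroblasts (7000 cells/well) treated 48 hours with compound doses from 2.5 μM down to 0.6 nM.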

[5] = tested on: MDR1 (P-gp); test: Blood-brain-barrier (BBB) penetration potential via MDCK-MDR1 permeability assay; settings: dog; for Papp A→B at 120 min, 5 μM: MDCK-MDR1, pH 7.4, MDCK-MDR1: Papp A-B, A-B direction; for Papp B→A at 120 min, 5 μM: MDCK-MDR1, pH 7.4, MDCK-MDR1: Papp B-A, B-A direction
[6] = tested on: MDR1-MDCK cell monolayers; test: as above; settings: for MDCK-MDR1: % Recov A-B: A-B direction; for MDCK-MDR1: % Recov B-A: B-A direction
[7] = tested on: MDR1; test: as above; settings: dog, MDCK-MDR1, pH 7.4, MDCK-MDR1: Efflux, efflux ratio

Row | SMILES | pEC50 [1] | pEC50 [2] | pEC50 [3] | pEC50 [4] | Papp A→B at 120 min, 5 μM [5] | Papp B→A at 120 min, 5 μM [5] | MDCK-MDR1: % Recov A-B [6] | MDCK-MDR1: % Recov B-A [6] | efflux ratio at 120 min, 5 μM [7] | SMN2 protein EC50 [4]
1 | CN(c1ccc(-c2cc3occc(=O)c3cc2O)nn1)[C@@H]1C[C@H]2CC[C@H](N2)[C@@H]1F [Compound 43A, 7-(6-(((1S,2S,3R,5R)-2-fluoro-8-azabicyclo[3.2.1]octan-3-yl)(methyl)amino)pyridazin-3-yl)-6-hydroxy-4H-chromen-4-one] | 7.00 to 7.29 | 7.30 to 7.80 | 7.30 to 7.80 | 7.82 to 11.00 | 2.14 ×10⁻⁶ cm/s | 23.2 ×10⁻⁶ cm/s | 64% | 58% | 11 | 
2 | CN(c1ccc(-c2cc3occc(=O)c3cc2O)nn1)[C@H]1C[C@@H]2CC[C@@H](N2)[C@H]1F [Compound 43B, 7-(6-(((1R,2R,3S,5S)-2-fluoro-8-azabicyclo[3.2.1]octan-3-yl)(methyl)amino)pyridazin-3-yl)-6-hydroxy-4H-chromen-4-one] | 7.82 to 11.00 | 7.82 to 11.00 | 7.82 to 11.00 | 7.82 to 11.00 | 2.32 ×10⁻⁶ cm/s | 28.3 ×10⁻⁶ cm/s | 66% | 48% | 12 | 
3 | CN(c1ccc(-c2ccc(-c3nnco3)cc2O)nn1)[C@H]1C[C@@H]2CC[C@@H](N2)[C@H]1F [Compound 44B, 2-(6-(((1R,2R,3S,5S)-2-fluoro-8-azabicyclo[3.2.1]octan-3-yl)(methyl)amino)pyridazin-3-yl)-5-(1,3,4-oxadiazol-2-yl)phenol] | 7.82 to 11.00 | 7.82 to 11.00 | 7.82 to 11.00 | 7.30 to 7.80 | 8.2 ×10⁻⁶ cm/s | 54.7 ×10⁻⁶ cm/s | 91% | 92% | 7 | 
4 | CNC(=O)c1cc(O)c(-c2ccc(N(C)[C@H]3C[C@@H]4CC[C@@H](N4)[C@H]3F)nn2)cc1F [Compound 47B, 2-fluoro-4-(6-(((1R,2R,3S,5S)-2-fluoro-8-azabicyclo[3.2.1]octan-3-yl)(methyl)amino)pyridazin-3-yl)-5-hydroxy-N-methylbenzamide] | 7.00 to 7.29 | 7.00 to 7.29 | 7.00 to 7.29 | 7.30 to 7.80 | 1.26 ×10⁻⁶ cm/s | 49.8 ×10⁻⁶ cm/s | 101% | 120% | 40 | 
5 | Cc1cc(=O)c2cc(O)c(-c3ccc(N(C)[C@@H]4C[C@H]5CC[C@H](N5)[C@@H]4F)nn3)cc2o1 [Compound 49A, 7-(6-(((1S,2S,3R,5R)-2-fluoro-8-azabicyclo[3.2.1]octan-3-yl)(methyl)amino)pyridazin-3-yl)-6-hydroxy-2-methyl-4H-chromen-4-one] | 7.30 to 7.80 | 7.30 to 7.80 | 7.82 to 11.00 | 7.82 to 11.00 | 0.72 ×10⁻⁶ cm/s | 30.7 ×10⁻⁶ cm/s | 93% | 78% | 43 | 
6 | Cc1cc(=O)c2cc(O)c(-c3ccc(N(C)[C@H]4C[C@@H]5CC[C@@H](N5)[C@H]4F)nn3)cc2o1 [Compound 49B, 7-(6-(((1R,2R,3S,5S)-2-fluoro-8-azabicyclo[3.2.1]octan-3-yl)(methyl)amino)pyridazin-3-yl)-6-hydroxy-2-methyl-4H-chromen-4-one] | 7.82 to 11.00 | 7.82 to 11.00 | 7.82 to 11.00 | 7.82 to 11.00 | 0.86 ×10⁻⁶ cm/s | 32.9 ×10⁻⁶ cm/s | 86% | 91% | 38 | 
7 | Cc1cc(=O)c2cc(-c3ccc(N(C)[C@@H]4C[C@H]5CC[C@H](N5)[C@@H]4F)nn3)c(O)cc2o1 [Compound 50A, 6-(6-(((1S,2S,3R,5R)-2-fluoro-8-azabicyclo[3.2.1]octan-3-yl)(methyl)amino)pyridazin-3-yl)-7-hydroxy-2-methyl-4H-chromen-4-one] | 7.82 to 11.00 | 7.82 to 11.00 | 7.30 to 7.80 | 7.82 to 11.00 | 2.16 ×10⁻⁶ cm/s | 68.3 ×10⁻⁶ cm/s | 85% | 92% | 32 | 
8 | Cc1cc(=O)c2cc(-c3ccc(N(C)[C@H]4C[C@@H]5CC[C@@H](N5)[C@H]4F)nn3)c(O)cc2o1 [Compound 50B, 6-(6-(((1R,2R,3S,5S)-2-fluoro-8-azabicyclo[3.2.1]octan-3-yl)(methyl)amino)pyridazin-3-yl)-7-hydroxy-2-methyl-4H-chromen-4-one] | 7.82 to 11.00 | 7.82 to 11.00 | 7.82 to 11.00 | 7.82 to 11.00 | 1.81 ×10⁻⁶ cm/s | 51.8 ×10⁻⁶ cm/s | 80% | 95% | 29 | 
9 | CN(c1ccc(-c2cc3ncn(C)c(=O)c3cc2O)nn1)[C@H]1C[C@@H]2CC[C@@H](N2)[C@H]1F [Compound 51B, 7-(6-(((1R,2R,3S,5S)-2-fluoro-8-azabicyclo[3.2.1]octan-3-yl)(methyl)amino)pyridazin-3-yl)-6-hydroxy-3-methylquinazolin-4(3H)-one] | 7.82 to 11.00 | 7.82 to 11.00 | 7.82 to 11.00 | 7.82 to 11.00 | 0.91 ×10⁻⁶ cm/s | 50.3 ×10⁻⁶ cm/s | 88% | 90% | 55 | 
10 | CN(c1ccc(-c2cc(F)c(-n3ccnn3)cc2O)nn1)[C@@H]1C[C@H]2CC[C@H](N2)[C@@H]1F [Compound 52A, 4-fluoro-2-(6-(((1S,2S,3R,5R)-2-fluoro-8-azabicyclo[3.2.1]octan-3-yl)(methyl)amino)pyridazin-3-yl)-5-(1H-1,2,3-triazol-1-yl)phenol] | 6.30 to 7.00 | 7.30 to 7.80 | 7.00 to 7.29 | 7.30 to 7.80 | 6.63 ×10⁻⁶ cm/s | 49.7 ×10⁻⁶ cm/s | 86% | 92% | 8 | 
11 | CN(c1ccc(-c2cc(F)c(-n3ccnn3)cc2O)nn1)[C@H]1C[C@@H]2CC[C@@H](N2)[C@H]1F [Compound 52B, 4-fluoro-2-(6-(((1R,2R,3S,5S)-2-fluoro-8-azabicyclo[3.2.1]octan-3-yl)(methyl)amino)pyridazin-3-yl)-5-(1H-1,2,3-triazol-1-yl)phenol] | 7.30 to 7.80 | 7.82 to 11.00 | 7.30 to 7.80 | 7.82 to 11.00 | 7.44 ×10⁻⁶ cm/s | 54.4 ×10⁻⁶ cm/s | 97% | 90% | 7 | 
12 | Cn1cnc2cc(-c3ccc(N(C4CC4)[C@H]4C[C@@H]5CC[C@@H](N5)[C@H]4F)nn3)c(O)cc2c1=O [Compound 56B, 7-(6-(cyclopropyl((1R,2R,3S,5S)-2-fluoro-8-azabicyclo[3.2.1]octan-3-yl)amino)pyridazin-3-yl)-6-hydroxy-3-methylquinazolin-4(3H)-one] | 7.82 to 11.00 | 7.82 to 11.00 | 7.30 to 7.80 |  | 1.12 ×10⁻⁶ cm/s | 51.2 ×10⁻⁶ cm/s | 96% | 97% | 46 | E (501 ≤ E ≤ 10.000)
